Tests used:
Type in all cases: functional
[1] = Growth inhibition of human UACC62 cells at 10 uM after 48 hrs by SRB assay relative to control; conditions: UACC-62, 48 h, read-out: GI
[2] = Growth inhibition of human OVCAR3 cells at 10 uM after 48 hrs by SRB assay relative to control; conditions: OVCAR-3, 48 h, read-out: GI
[3] = Growth inhibition of human Hs 578T cells at 10 uM after 48 hrs by SRB assay relative to control; conditions: read-out: GI
[4] = Growth inhibition of human BT549 cells at 10 uM after 48 hrs by SRB assay relative to control; conditions: BT-549, 48 h, read-out: GI
[5] = Growth inhibition of human OVCAR4 cells at 10 uM after 48 hrs by SRB assay relative to control; conditions: OVCAR-4, 48 h, read-out: GI
[6] = Growth inhibition of human MOLT4 cells at 10 uM after 48 hrs by SRB assay relative to control; conditions: MOLT-4, 48 h, read-out: GI
[7] = Growth inhibition of human SF268 cells at 10 uM after 48 hrs by SRB assay relative to control; conditions: SF-268, 48 h, read-out: GI
[8] = Growth inhibition of human PC3 cells at 10 uM after 48 hrs by SRB assay relative to control; conditions: PC-3, 48 h, read-out: GI
[9] = test system: SK-MEL-5; test: Growth inhibition of human SK-MEL-5 cells at 10 uM after 48 hrs by SRB assay relative to control; conditions: SK-MEL-5, 48 h, read-out: GI
[10] = Growth inhibition of human SNB75 cells at 10 uM after 48 hrs by SRB assay relative to control; conditions: SNB-75, 48 h, read-out: GI
[11] = Growth inhibition of human SF539 cells at 10 uM after 48 hrs by SRB assay relative to control; conditions: SF-539, 48 h, read-out: GI
[12] = test system: CCRF-CEM; test: Growth inhibition of human CCRF-CEM cells at 10 uM after 48 hrs by SRB assay relative to control; conditions: read-out: GI
[13] = Growth inhibition of human HCT15 cells at 10 uM after 48 hrs by SRB assay relative to control; conditions: HCT-15, 48 h, read-out: GI
[14] = test system: NCI-H226; test: Growth inhibition of human NCI-H226 cells at 10 uM after 48 hrs by SRB assay relative to control; conditions: NCI-H226, 48 h, read-out: GI
[15] = Growth inhibition of human NCI-ADR-RES cells at 10 uM after 48 hrs by SRB assay relative to control; conditions: read-out: GI
[16] = Growth inhibition of human SF295 cells at 10 uM after 48 hrs by SRB assay relative to control; conditions: SF-295, 48 h, read-out: GI
[17] = test system: SR; test: Growth inhibition of human SR cells at 10 uM after 48 hrs by SRB assay relative to control; conditions: read-out: GI
[18] = test system: KM12; test: Growth inhibition of human KM12 cells at 10 uM after 48 hrs by SRB assay relative to control; conditions: KM12, 48 h, read-out: GI
[19] = test system: NCI-H23; test: Growth inhibition of human NCI-H23 cells at 10 uM after 48 hrs by SRB assay relative to control; conditions: NCI-H23, 48 h, read-out: GI
[20] = Growth inhibition of human OVCAR8 cells at 10 uM after 48 hrs by SRB assay relative to control; conditions: OVCAR-8, 48 h, read-out: GI
[21] = test system: EKVX; test: Growth inhibition of human EKVX cells at 10 uM after 48 hrs by SRB assay relative to control; conditions: read-out: GI
[22] = Growth inhibition of human SKOV3 cells at 10 uM after 48 hrs by SRB assay relative to control; conditions: SK-OV-3, 48 h, read-out: GI

Compound | inhibition of growth at 10 µM [1] [%] | inhibition of growth at 10 µM [2] [%] | inhibition of growth at 10 µM [3] [%] | inhibition of growth at 10 µM [4] [%] | inhibition of growth at 10 µM [5] [%] | inhibition of growth at 10 µM [6] [%] | inhibition of growth at 10 µM [7] [%] | inhibition of growth at 10 µM [8] [%] | inhibition of growth at 10 µM [9] [%] | inhibition of growth at 10 µM [10] [%] | inhibition of growth at 10 µM [11] [%] | inhibition of growth at 10 µM [12] [%] | inhibition of growth at 10 µM [13] [%] | inhibition of growth at 10 µM [14] [%] | inhibition of growth at 10 µM [15] [%] | inhibition of growth at 10 µM [16] [%] | inhibition of growth at 10 µM [17] [%] | inhibition of growth at 10 µM [18] [%] | inhibition of growth at 10 µM [19] [%] | inhibition of growth at 10 µM [20] [%] | further results
COc1ccc(C(=O)c2ccc3c(c2)Sc2cc(C(=O)c4ccc(OC)c(F)c4)ccc2N3C)cc1F | 0 | 16 | 17 | 34 | 0 | 0 | 0 | 3 | 4 | 2 | 6 | 0 | 0 | 0 | 0 | 0 | 4 | 0 | 4 | 6 | –
O/N=C(/c1ccc2c(c1)Sc1ccccc1N2)c1c[nH]c2ccccc12 | 54 | 96 | 40 | 63 | 26 | 74 | 44 | 72 | 40 | 47 | 29 | 76 | 58 | 23 | 80 | 55 | 91 | 76 | 24 | 24 | –
COc1ccc(C(=O)c2ccc3c(c2)Sc2ccccc2N3C)cc1F | 26 | 40 | 7 | 58 | 10 | 17 | 2 | 21 | 13 | 1 | 19 | 12 | 36 | 15 | 32 | 16 | 32 | 30 | 13 | 4 | –
O=C(c1ccc(Cl)cc1Cl)N1c2ccccc2Sc2ccccc21 | 57 | 41 | 4 | 45 | 18 | 74 | 50 | 56 | 65 | 40 | 58 | 43 | 70 | 32 | 39 | 47 | 68 | 50 | 26 | 49 | inhibition of growth at 10 µM [21]: 24%; inhibition of growth at 10 µM [22]: 31%
O=C(c1ccc(F)cc1F)N1c2ccccc2Sc2ccccc21 | 68 | 43 | 16 | 43 | 17 | 69 | 46 | 58 | 68 | 31 | 49 | 38 | 76 | 30 | 55 | 36 | 72 | 62 | 23 | 35 | inhibition of growth at 10 µM [21]: 20%; inhibition of growth at 10 µM [22]: 22%

Reference: ChEMBL document CHEMBL3792297, “Studies on phenothiazines: New microtubule-interacting compounds with phenothiazine A-ring as potent antineoplastic agents” (Bioorg Med Chem, 2016)
